The record followed here is the NIST ThermoML archive (doi:10.1021/je034153o).

Several values for one entry are separate records, joined by “and”; a condition that tells them apart may be missing. Equal values may be shown once. Numbers after ± are expanded uncertainties.

The vapor or sublimation pressure is the equilibrium pressure above the liquid or solid.

For the data set the following is noted: 303.15 K; Liquid; Closed cell (Static) method.
Consider `ClC(Cl)(Cl)Cl` [tetrachloromethane], for which the “vapor or sublimation pressure” value is given as 18.83 ± 0.083 kPa.

For the compound `CCOCCO` [2-ethoxyethan-1-ol], the “vapor or sublimation pressure” value is 0.981 ± 0.017 kPa and 0.984 ± 0.017 kPa and 0.968 ± 0.017 kPa. Under `ClC(Cl)Cl` [trichloromethane] stands 32.41 ± 0.13 kPa; under `ClCCl` [dichloromethane], 70.49 ± 0.27 kPa.
